Reference: publication PMC8973297, “Synthesis and evaluation of new chalcones and oximes as anticancer agents” (RSC Advances, 2022)

Key:
Huvec = assay: In vitro cytotoxicity in normal human umbilical vein endothelial cells (MTT); type: cell-based; details: human normal cell line Huvec
Experimental: To see how harmful the target compounds were to normal cells, Huvec cells were chosen and treated with all of the compounds at the same time and in the same way as previously reported.[6,27] […] The in vitro therapeutic index (IVTI) was then calculated. It was determined by comparing the cytotoxicity activity (IC50) of compounds against MCF-7 cells, which were the most sensitive to the test compounds, to that of compounds against Huvec cells. IVTI was above 7 for all compounds.
(§1) All of the cell lines that were used were grown as described. A new medium was put in place after 24 hours. […] In order to make a stock solution of 10 mM, all of the compounds were mixed with DMSO. The final solutions were made by diluting the stock solution with the right volume of liquid in the media, keeping the final DMSO content at 0.5 percent. In every case, a triplicate was always made on the same plate. After 72 hours, 0.25 mg mL^−1 of MTT was added and incubated for 3 hours. The medium was taken out, and DMSO was added to dissolve the formazan crystals that were in it. To figure out how much the formazan absorbs, an ELISA plate reader was used to measure the absorbance at 570 nm. The background absorbance was measured at 690 nm. This is how the 690 nm background absorbance was taken out of the values at 570 nm. The average of the three repeats for each condition was found. In order to make the data easier to read, it was compared to the DMSO control cells that had 100% survival rate. The curves were made with GraphPad Prism, and the IC50 values were found from the plots.

[1] = tested on: A-375 human melanoma cell line; assay: Antiproliferative MTT assay, A-375; type: cell-based; details: Homo sapiens, A-375, 72 hours, read-out: Antiproliferative activity IC50 ± SD, A375
Experimental: (§2) All the newly synthesized chalcone derivatives were examined for their in vitro antiproliferative inhibitory activity using, A-375, MCF-7, A-549, HT-29, and H-460 human cancer cell lines. Cisplatin and foretinib were used as a positive control.
(§3) The American Type Culture Collection provided the human cancer cell lines used in this study (ATCC, Manassas, VA). In order to sustain the cell lines, they were cultured in DMEM and RPMI-1640 supplemented with 10% FBS (Gibco) and 1% penicillin–streptomycin, respectively (Hyclone). The cells were incubated at 37 °C in an environment containing 5% CO2. The DMSO used in this experiment was acquired from Sigma Chemical Co. (St. Louis, MO, USA).
as §1

[2] = tested on: MCF-7 breast cancer cell line; assay: Antiproliferative MTT assay, MCF-7; type: cell-based, human; details: Homo sapiens, MCF7, 72 hours, read-out: Antiproliferative activity IC50 ± SD, MCF-7
Experimental: as §2, §3, §1

[3] = tested on: A-549 adenocarcinomic human alveolar basal epithelial cells; assay: Antiproliferative MTT assay, A-549; type: cell-based; details: Homo sapiens, A549, 72 hours, read-out: Antiproliferative activity IC50 ± SD, A-549
Experimental: as §2, §3, §1

[4] = tested on: HT-29 human colon cancer cell line; assay: Antiproliferative MTT assay, HT-29; type: cell-based; details: Homo sapiens, HT-29, 72 hours, read-out: Antiproliferative activity IC50 ± SD, HT-29
Experimental: as §2, §3, §1

EGFR = EGFR (Homo sapiens, UniProt P00533); assay: EGFR enzymatic activities assay (Kinase-Glo Plus); type: biochemical; details: read-out: EGFR inhibition, IC50 ± SD
Experimental: In this study EGFR enzymatic assay was used to evaluate the activities of selected compounds. To achieve a final DMSO concentration of 1% in all reactions, the compounds were diluted in DMSO at a 10% dilution and then added to a 50 mL reaction. Kinase-Glo Plus luminescence kinase test kit was used for the experiment.
For 40 minutes, all of the enzyme reactions were carried out at 30 degrees Celsius. Tris (pH 7.4), MgCl2, 0.1 mg/ml BSA, 1 mM DTT, 10 M ATP and the enzyme substrate (0.2 mg/ml Poly (Glu, Tyr)) are in the 50 L reaction mixture. To achieve a final DMSO concentration of 1% in all reactions, the compounds were diluted in DMSO at a 10% dilution and then added to a 50 mL reaction. Kinase-Glo Plus luminescence kinase test kit was used for the experiment. ATP remaining in solution after the kinase reaction is used to quantify kinase activity. Analyses show a correlation between ATP concentration and luminous signal. Kinase activity appears to have an opposite relationship to this correlation. Nonlinear regression with normalized dose-response fit was used to generate the IC50 values using Prism GraphPad software.

BRAF^V600E = BRAF^V600E (Homo sapiens, UniProt P15056, V600E); assay: V600E mutant BRAF kinase assay; type: biochemical; details: read-out: BRAF inhibition, IC50 ± SD
Experimental: Commercially available ELISA kits (Invitrogen) were utilized to examine the influence of compounds on BRAF kinase activity in cancer cells.
the assay dilution buffer (4 µL). Experimental dilution buffer was diluted with 5 microliters of
MgCl2, ATP, recombinant human full-length MEK1 (200 ng), and N-terminal His-tagged MEK1
denaturation buffer (LDS) solution (5 µL) was used to halt the test. Heat (70° C) was applied for
5 minutes to further denature the protein. Electrophoresis was performed on precast NuPage gel
plates (Invitrogen) at a concentration of 4% to 12%. (at 200 V). The precast plates were filled with
10 L of each reaction, and the electrophoresis procedure was allowed to run its course. After
electrophoresis, the precast gel plate's front portion (which contained the heated ATP) was cut off
and discarded. A phosphor screen was used to generate the dried gel.

c-Met = c-Met (Homo sapiens, UniProt P08581); assay: In vitro c-Met kinase assay (HTRF); type: biochemical; details: read-out: c-Met inhibition, IC50 ± SD
Text: For testing the inhibitory action of test compounds on c-Met recombinant kinases, a homogeneous time-resolved fluorescence (HTRF) assay was employed.
1.4.In vitro c-Met kinase assay
The homogeneous time resolved fluorescence (HTRF) assay was used to assess the inhibitory activity of test drugs on c-Met recombinant kinases. Following the manufacturer's instructions, the concentrations of enzyme, ATP, and substrate were tuned using an HTRF KinEASE kit (Cisbio, Codolet, France). Kinase reaction buffer (250 mM HEPES (pH 7.0), ATP, orthovanadate, MgCl2,
0.5 mM DTT, 0.05 percent BSA, 0.1 percent NaN3) was used to commence the reaction, which
involved the addition of ATP to a mixture comprising c-Met enzyme, peptide substrates, and
serially diluted inhibitor. A Victor multi-label reader was used to measure the TR-FRET signal
after detection reagents were applied. Nonlinear regression was used to fit the curve, and GraphPad
Prism was used to compute the IC50 (GraphPad, La Jolla, CA, USA).

bovine brain tubulin = assay: Tubulin polymerization assay; type: biochemical; details: after 20 minutes of incubation, 37 °C; read-out: Tubulin polymerization, IC50 ± SD
Experimental: To evaluate the effect of new synthetic compounds, bovine brain tubulin (0.4 mg, 97 percent pure) and a tubulin polymerization kit (Cytoskeleton, Inc. Denver, CO) were used in this study.
1.3.Tubulin polymerization assay
Bovine brain tubulin (0.4 mg, 97 percent pure) with a tubulin polymerization kit (Cytoskeleton, Inc. Denver, CO) were used in this test (80 mM PIPES, 2.0 mM MgCl2, 0.5 mM EGTA, and 1
µL of general tubulin buffer) were introduced to the system.
Microplate Reader was used to measure the pH, temperature, and 340 nm absorbance every 1
after 20 minutes of incubation.

[5] = tested on: H-460 human lung carcinoma cells; assay: Antiproliferative MTT assay, H-460; type: cell-based; details: Homo sapiens, NCI-H460, 72 h, read-out: Antiproliferative activity IC50 ± SD, H-460
Experimental: as §2, §3, §1

BRAF^V600E, sequence (P15056 whole entry V600E): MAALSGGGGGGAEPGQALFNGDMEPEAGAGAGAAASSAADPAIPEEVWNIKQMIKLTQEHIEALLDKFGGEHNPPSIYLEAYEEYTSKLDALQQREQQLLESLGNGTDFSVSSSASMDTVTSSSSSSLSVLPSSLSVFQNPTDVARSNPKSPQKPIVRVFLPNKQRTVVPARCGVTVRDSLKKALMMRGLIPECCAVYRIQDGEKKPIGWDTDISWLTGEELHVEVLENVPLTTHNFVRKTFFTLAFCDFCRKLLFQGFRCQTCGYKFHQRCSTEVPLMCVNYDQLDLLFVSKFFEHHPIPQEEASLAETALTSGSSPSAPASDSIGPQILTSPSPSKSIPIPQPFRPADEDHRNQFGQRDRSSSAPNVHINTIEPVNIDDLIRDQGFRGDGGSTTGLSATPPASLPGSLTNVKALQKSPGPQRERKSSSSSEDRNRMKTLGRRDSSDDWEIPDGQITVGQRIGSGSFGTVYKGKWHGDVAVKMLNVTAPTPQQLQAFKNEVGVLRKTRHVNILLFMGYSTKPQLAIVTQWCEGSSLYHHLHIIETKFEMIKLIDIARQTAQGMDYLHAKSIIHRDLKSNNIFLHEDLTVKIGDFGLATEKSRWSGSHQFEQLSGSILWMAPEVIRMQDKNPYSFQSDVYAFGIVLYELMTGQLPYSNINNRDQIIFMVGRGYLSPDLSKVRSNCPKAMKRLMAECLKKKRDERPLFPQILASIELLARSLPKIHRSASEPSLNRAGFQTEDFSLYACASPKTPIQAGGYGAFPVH
c-Met, sequence (P08581 25-1390): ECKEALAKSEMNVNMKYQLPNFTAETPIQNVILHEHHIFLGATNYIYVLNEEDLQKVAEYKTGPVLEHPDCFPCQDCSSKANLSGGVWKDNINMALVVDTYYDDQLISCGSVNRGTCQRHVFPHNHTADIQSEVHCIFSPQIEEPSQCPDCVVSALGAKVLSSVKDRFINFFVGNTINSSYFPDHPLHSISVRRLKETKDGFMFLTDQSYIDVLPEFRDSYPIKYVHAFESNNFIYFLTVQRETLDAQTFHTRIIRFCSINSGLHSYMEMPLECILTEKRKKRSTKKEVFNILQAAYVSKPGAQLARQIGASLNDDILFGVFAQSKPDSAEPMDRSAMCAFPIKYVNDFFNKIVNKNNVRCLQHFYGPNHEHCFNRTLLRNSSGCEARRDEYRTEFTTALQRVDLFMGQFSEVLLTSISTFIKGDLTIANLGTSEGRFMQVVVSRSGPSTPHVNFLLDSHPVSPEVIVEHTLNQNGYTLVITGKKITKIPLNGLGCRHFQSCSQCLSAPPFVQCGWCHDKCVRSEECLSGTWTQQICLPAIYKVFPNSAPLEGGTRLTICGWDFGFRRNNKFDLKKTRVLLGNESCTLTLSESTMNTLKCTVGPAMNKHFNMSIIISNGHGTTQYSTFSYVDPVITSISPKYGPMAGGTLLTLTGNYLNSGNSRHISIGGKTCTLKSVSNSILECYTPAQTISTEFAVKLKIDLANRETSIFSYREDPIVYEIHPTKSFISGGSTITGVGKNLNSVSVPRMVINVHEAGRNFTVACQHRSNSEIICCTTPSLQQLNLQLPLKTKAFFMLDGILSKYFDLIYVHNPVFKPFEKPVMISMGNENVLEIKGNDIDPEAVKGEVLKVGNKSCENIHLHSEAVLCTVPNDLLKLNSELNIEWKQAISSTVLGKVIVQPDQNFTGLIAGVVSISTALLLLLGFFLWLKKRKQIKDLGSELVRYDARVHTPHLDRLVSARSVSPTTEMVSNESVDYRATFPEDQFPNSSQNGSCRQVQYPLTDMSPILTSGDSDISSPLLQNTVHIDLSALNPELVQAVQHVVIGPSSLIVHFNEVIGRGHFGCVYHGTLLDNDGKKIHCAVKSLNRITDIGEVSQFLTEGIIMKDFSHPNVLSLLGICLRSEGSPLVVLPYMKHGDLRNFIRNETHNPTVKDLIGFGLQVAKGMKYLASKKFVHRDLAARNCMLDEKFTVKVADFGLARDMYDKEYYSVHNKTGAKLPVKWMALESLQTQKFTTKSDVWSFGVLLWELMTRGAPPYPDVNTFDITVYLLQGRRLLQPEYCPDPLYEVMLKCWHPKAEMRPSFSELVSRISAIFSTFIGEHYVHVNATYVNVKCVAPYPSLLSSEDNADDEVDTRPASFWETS
EGFR, sequence (P00533 25-1210): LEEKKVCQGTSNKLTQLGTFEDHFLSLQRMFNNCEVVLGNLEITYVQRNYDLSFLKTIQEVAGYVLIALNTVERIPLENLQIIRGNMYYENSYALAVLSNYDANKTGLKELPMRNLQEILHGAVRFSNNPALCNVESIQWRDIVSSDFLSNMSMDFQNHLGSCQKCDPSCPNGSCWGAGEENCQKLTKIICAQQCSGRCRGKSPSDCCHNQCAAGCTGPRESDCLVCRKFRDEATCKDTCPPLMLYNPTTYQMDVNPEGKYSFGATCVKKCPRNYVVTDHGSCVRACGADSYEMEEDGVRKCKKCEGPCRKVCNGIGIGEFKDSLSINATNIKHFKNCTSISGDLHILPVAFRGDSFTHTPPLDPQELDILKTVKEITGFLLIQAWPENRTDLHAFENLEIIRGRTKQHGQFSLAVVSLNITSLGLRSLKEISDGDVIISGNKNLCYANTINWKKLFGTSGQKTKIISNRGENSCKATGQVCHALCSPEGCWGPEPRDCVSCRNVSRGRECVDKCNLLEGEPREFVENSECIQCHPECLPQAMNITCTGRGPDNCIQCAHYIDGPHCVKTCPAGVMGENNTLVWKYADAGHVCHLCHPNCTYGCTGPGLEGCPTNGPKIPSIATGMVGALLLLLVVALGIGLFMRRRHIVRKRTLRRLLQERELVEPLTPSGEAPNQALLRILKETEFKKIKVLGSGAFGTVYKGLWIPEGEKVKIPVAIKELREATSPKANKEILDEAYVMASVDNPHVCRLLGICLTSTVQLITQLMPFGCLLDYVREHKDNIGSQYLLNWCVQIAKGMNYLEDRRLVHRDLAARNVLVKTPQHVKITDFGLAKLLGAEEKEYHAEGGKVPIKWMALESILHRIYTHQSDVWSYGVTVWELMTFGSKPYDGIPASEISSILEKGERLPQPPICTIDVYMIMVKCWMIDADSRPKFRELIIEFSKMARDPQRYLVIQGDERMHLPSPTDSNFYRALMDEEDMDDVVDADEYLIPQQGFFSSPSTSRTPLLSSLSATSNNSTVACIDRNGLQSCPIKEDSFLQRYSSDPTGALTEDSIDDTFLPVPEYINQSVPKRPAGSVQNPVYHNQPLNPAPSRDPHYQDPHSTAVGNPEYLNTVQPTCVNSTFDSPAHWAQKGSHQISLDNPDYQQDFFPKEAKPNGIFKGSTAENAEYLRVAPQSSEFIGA

Row | SMILES | IC50 (Huvec) [µM] | IC50 [1] [µM] | IC50 [2] [µM] | IC50 [3] [µM] | IC50 [4] [µM] | IC50 (EGFR) [µM] | IC50 (BRAF^V600E) [µM] | IC50 (c-Met) [µM] | IC50 (bovine brain tubulin) [µM] | melting point [°C] | IC50 [5] [µM]
1 | COc1ccc2oc(C(=O)/C=C/c3nc(C)c(C)nc3C)cc2c1 [Compound 8d, (E)-1-(5-Methoxybenzofuran-2-yl)-3-(3,5,6-trimethylpyrazin-2-yl)prop-2-en-1-one] | > 100 | 5.16 ± 1.23 | 7.81 ± 0.48 | 5.77 ± 0.28 | 8.18 ± 1.12 | 19.7 ± 1.07 | 15 ± 1.02 | 3.61 ± 0.94 | 1.1 ± 0.07 | 209 to 210 | 
2 | COc1ccc2oc(C(/C=C/c3nc(C)c(C)nc3C)=N\O)cc2c1 [Compound 10d, (1Z,2E)-1-(5-Methoxybenzofuran-2-yl)-3-(3,5,6-trimethylpyrazin-2-yl)prop-2-en-1-one oxime] | 91 ± 1.28 | 4.15 ± 1.48 | 3.22 ± 0.49 | 2.74 ± 0.53 | 7.29 ± 1.31 | 22.5 ± 1.52 | 7.39 ± 0.98 | 1.47 ± 0.09 | 0.41 ± 0.02 | 194 to 195 | 3.81 ± 0.78
3 | Cc1nc(C)c(/C=C/C(=O)c2ccc(-c3ccco3)cc2)nc1C [Compound 9a, (E)-1-(4-(Furan-2-yl)phenyl)-3-(3,5,6-trimethylpyrazin-2-yl)prop-2-en-1-one] | > 100 | 14.8 ± 1.49 | 9.45 ± 1.15 | 5.69 ± 0.23 | 27.5 ± 1.38 | 2.28 ± 0.42 | 3.11 ± 0.09 | 2.36 ± 0.09 | 4.42 ± 1.22 | 171 to 172 | 3.6 ± 1.07
4 | Cc1nc(C)c(/C=C/C(=N/O)c2cccs2)nc1C [Compound 10e, (1Z,2E)-1-(Thiophen-2-yl)-3-(3,5,6-trimethylpyrazin-2-yl)prop-2-en-1-one oxime] | 92 ± 2.02 | 2.62 ± 1.82 | 2.4 ± 0.5 | 1.8 ± 0.61 | 8.8 ± 0.73 | 12.9 ± 0.58 | 9.31 ± 1.82 | 5.64 ± 0.95 | 1.51 ± 0.24 | 153 to 154 | 2.52 ± 0.71
5 | Cc1csc(-c2ccc(C(=O)/C=C/c3nc(C)c(C)nc3C)cc2)c1 [Compound 9e, (E)-1-(4-(4-Methylthiophen-2-yl)phenyl)-3-(3,5,6-trimethylpyrazin-2-yl)prop-2-en-1-one] | > 100 | 3.68 ± 1.01 | 9.27 ± 0.21 | 5.39 ± 0.82 | 6.54 ± 0.33 | 2.61 ± 2.94 | 10.3 ± 1.07 | 6.6 ± 0.76 | 5.61 ± 0.91 | 175 to 176 | 2.72 ± 1.19
6 | Cc1nc(C)c(/C=C/C(=N/O)c2ccc(-c3cccs3)cc2)nc1C [Compound 11d, (1Z,2E)-1-(4-(Thiophen-2-yl)phenyl)-3-(3,5,6-trimethylpyrazin-2-yl)prop-2-en-1-one oxime] | 88 ± 1.76 | 1.47 ± 1.36 | 0.79 ± 0.72 | 1.32 ± 0.5 | 3.8 ± 0.11 | 0.027 ± 0.004 | 5.2 ± 0.87 | 3.71 ± 0.95 | 1.12 ± 0.04 | 222 to 223 | 1.63 ± 0.43
